The values below come from paper PMC6271077, “Synthesis, Anticancer and Antibacterial Activity of Salinomycin N-Benzyl Amides” (Molecules, 2014).

In brackets after ≈: the same amount, converted by molar mass. Read-outs that look alike come from different tables or passages of the source. Some results are limits rather than exact numbers.

The test system of one assay is HL-60. The experiment in a line: Antiproliferative MTT assay, HL-60. In kind it is cell-based, human. To be noted: for IC50: Homo sapiens, read-out: IC50 HL-60; for SI HL-60: SI = IC50 BALB/3T3 / IC50 HL-60. The source says: (§1) Four human cancer cell lines and one normal cell line were used to evaluate anticancer activity of SAL and its N-benzyl amides: human acute promyelocytic leukemia (HL-60) and its vincristine resistant subline (HL-60/vinc), human colon adenocarcinoma cell lines sensitive (LoVo) and resistant to doxorubicin (LoVo/dx) as well as also normal murine embryonic fibroblast cell line (BALB/3T3). The BALB/3T3 cell line was purchased from the American Type Culture Collection (ATCC Rockville, MD, USA), HL-60 cell line from European Type Culture Collection by courtesy of Professor Spik and Dr Mazurier (Laboratory of Biological Chemistry USTL, Lille, France) and HL-60/vinc, LoVo and LoVo/dx by courtesy of Prof. E. Borowski (Technical University of Gdańsk, Gdańsk, Poland). All the cell lines are maintained in the Institute of Immunology and Experimental Therapy (IIET), Wrocław, Poland.
(§2) Human leukemia cells were cultured in ISCOVE medium (IIET, Wroclaw, Polond) containing 10% fetal bovine serum and 2 mM L-glutamine (Sigma Aldrich) and 1 µg/100 mL […] for HL-60/vinc (Sigma Aldrich). Human colon adenocarcinoma cell lines were cultured in mixture of OptiMEM and RPMI 1640 (1:1) medium (IIET) supplemented with 5% fetal bovine serum (Thermo Fisher Scientific, Waltham, MA, USA), 2 mM L-glutamine, 1 mM sodium pyruvate (Sigma Aldrich) and 10 µg/100 mL doxorubicin for LoVo/dx (Sigma Aldrich). Murine embryonic fibroblast cells were cultured in Dulbecco medium (Gibco, Darmstadt, Germany) supplemented with 10% fetal bovine serum (Thermo Fisher Scientific) and 2 mM L-glutamine (Sigma Aldrich). All culture media contained antibiotics: 100 U/mL penicillin (Sigma Aldrich) and 100 µg/mL streptomycin (Polfa-Tarchomin, City, Poland). All cell lines were cultured during entire experiment in humid atmosphere at 37 °C and 5% CO2.
(§3) Twenty four hours before adding the tested compounds all cell lines were seeded in 96-well plates (Sarstedt, Nümbrecht, Germany) in appropriate media with 10^4 cells per well. All cell lines were exposed to each tested agent at four different concentrations from the range 100 to 0.1 µg/mL for 72 h. The cells were also exposed to the reference drugs: cisplatin (Accord, London, UK) and doxorubicin hydrochloride (Fluka, St. Louis, MO, USA). Additionally, all cell lines were exposed to DMSO (the solvent used for tested compounds, Sigma Aldrich) at the concentrations corresponding to those in the tested agent dilutions. For adherent cells sulphorodamine B assay was performed and MTT assay for leukemia cells.
(§4) Proliferation inhibition of leukemia cells by tested compounds was measured by means of MTT assay. Thus, 20 µL of 3-(4,5-dimethylthiazol-2-yl)-2,5-diphenyl tetrazolium bromide solution (Sigma Aldrich) were added to each well and plates were left in cell incubator for 4 h to allow the cells to metabolize yellow MTT to blue formazan. Then, the lysing mixture consisting of 225 mL dimethylformamide, 67.5 g sodium dodecyl sulfate (both from Sigma Aldrich) and 275 mL of distilled water was added in 80 µL volume per well. Plates were incubated for 24 h for the formazan crystals to be released from cells, dissolved and then absorbance of each well was read at Synergy H4 photometer (BioTek Instruments) at 570 nm wavelength.
(§5) Results are presented as mean IC50 (concentration of the tested compound that inhibits cell proliferation by 50%) ± standard deviation. IC50 values were calculated in Cheburator 1.0.2, Dmitry Nevozhay software for each experiment. Compounds at each concentration were tested in triplicates in single experiment and each experiment was repeated at least three times independently. The IR was defined as the ratio of IC50 for a given compound calculated for resistant cell line to that measured for its parental drug sensitive cell line (Table 4).
A general note: Tetrazolium dyes change colour on reduction, which living cells bring about.

The test system of another assay is HL-60/vinc. The experiment in a line: Antiproliferative MTT assay, HL-60/vinc. The assay is classed as cell-based, human. To be noted: for IC50: Homo sapiens, HL60/vinc, 72 h, read-out: IC50 HL-60/vinc; for IR HL-60/vinc: IR = IC50 HL-60/vinc / IC50 HL-60; for SI HL-60/vinc: SI = IC50 BALB/3T3 / IC50 HL-60/vinc.
Source text: as §1, §2, §3, §4, §5

In a further assay the test system is LoVo. The assay can be described thus: Antiproliferative SRB assay, LoVo. In kind it is cell-based, human. To be noted: for IC50: Homo sapiens, LoVo, 72 h, read-out: IC50 LoVo; for SI LoVo: SI = IC50 BALB/3T3 / IC50 LoVo.
Source text: as §1, §2, §3
(§6) After 72 h of incubation with tested compounds the cells were fixed in situ by gently adding of 50 µL per well of cold 50% trichloroacetic acid TCA (Avantor Performance Materials, City, Poland) and were incubated at 4 °C for 1 h. Then the wells were washed four times with water and air-dried. Next, 50 µL of 0.2% solution of sulphorodamine B (Sigma Aldrich) in 1% acetic acid (Avantor Performance Materials) were added to each well and plates were incubated at room temperature for 0.5 h. After incubation time, unbound dye was removed by washing plates four times with 1% acetic acid, whereas the stain bound to cells was solubilized with 150 µL of 10 mM Tris base (Sigma Aldrich). Absorbance of each solution was read at Synergy H4 photometer (BioTek Instruments, Winooski, VT, USA) at 540 nm wavelength.
as §5
For orientation: In SRB staining, fixed cells bind dye roughly in proportion to their protein.

Another assay concerns LoVo/dx. The experiment in a line: Antiproliferative SRB assay, LoVo/dx. The conditions noted are these: for IC50: Homo sapiens, LoVo/DX, 72 h, read-out: IC50 LoVo/dx; for IR LoVo/DX: IR = IC50 LoVo/dx / IC50 LoVo; for SI LoVo/DX: SI = IC50 BALB/3T3 / IC50 LoVo/dx. The assay is classed as cell-based, human.
Source text: as §1, §2, §3, §6, §5

Assay [1] deals with M. tuberculosis standard H37Rv strain. The experiment in a line: Tuberculostatic activity, test-tube dilution. The assay is classed as cell-based. The conditions noted are these: Mycobacterium tuberculosis, read-out: MIC M. tuberculosis Standard H37Rv Strain.
The test system of assay [2] is M. tuberculosis isoniazid-sensitive strain (spec. 192). The assay can be described thus: Tuberculostatic activity, test-tube dilution. In kind it is cell-based. To be noted: Mycobacterium tuberculosis, read-out: MIC M. tuberculosis Isoniazid-Sensitive Strain.
Assay [3] concerns HL-60, HL-60/vinc, LoVo, LoVo/dx. The experiment in a line: Antiproliferative assays, all four cancer cell lines (range given). To be noted: Homo sapiens, read-out: IC50 (range over the cancer cell lines). The assay is classed as cell-based.
Source text: as §1, §2, §3, §6
Proliferation inhibition of leukemia cells by tested compounds was measured by means of MTT assay. […]

Assay [4] concerns standard and "wild" strains of M. tuberculosis. The assay can be described thus: Tuberculostatic activity, all M. tuberculosis strains (overall). In kind it is cell-based. The conditions noted are these: Mycobacterium tuberculosis, H37RV, read-out: MIC (over M. tuberculosis strains).

Take `CC[C@H](C(=O)NCc1ccccc1Br)C1CC[C@H](C)C([C@@H](C)[C@H](O)[C@H](C)C(=O)[C@H](CC)C2O[C@]3(C=C[C@@H](O)C4(CC[C@@](C)(C5CC[C@](O)(CC)[C@H](C)O5)O4)O3)[C@H](C)C[C@@H]2C)O1` (stereo partly shown) [Br-o]: the IC50 is 3.13 ± 0.71 µM in the assay on HL-60 (HL-60, 72 h, MTT, mean ± SD, NA: not active in concentrations used (up to 100 µg/mL)); 4.8 ± 1.48 µM with HL-60/vinc; 3.64 ± 0.07 µM in the assay on LoVo (SRB, mean ± SD); 2.87 ± 0.29 µM in the assay with LoVo/dx; 2.32 to 6.84 µM in assay [3] (range over HL-60, HL-60/vinc, LoVo, LoVo/dx). Moreover, in the assay with HL-60, the “SI HL-60” value is recorded as 2.08. In addition, in the assay on HL-60/vinc, the “IR HL-60/vinc” value was found to be 1.53. In addition, the “SI HL-60/vinc” value in the assay on HL-60/vinc was 1.36. The “SI LoVo” value in the assay on LoVo was determined as 1.79. The “IR LoVo/DX” value with LoVo/dx stood at 0.79. Also, the “SI LoVo/DX” value in the assay on LoVo/dx is recorded as 2.27. In addition, the MIC in assay [1], in assay [2] and in assay [4] was above 100 mg/L in each case.

Turning to `CCC(C(=O)NCc1ccccc1F)C1CCC(C)C(C(C)C(O)C(C)C(=O)C(CC)C2OC3(C=CC(O)C4(CCC(C)(C5CCC(O)(CC)C(C)O5)O4)O3)C(C)CC2C)O1` (stereo not shown) [F-o], in the assay on HL-60 (HL-60, 72 h), the IC50 was found to be 3.63 ± 0.14 µM. Further, the “SI HL-60” value with HL-60 turned out to be 1.64. In the assay on HL-60/vinc, the IC50 worked out at 4.44 ± 1.73 µM, the “IR HL-60/vinc” value is 1.22 and the “SI HL-60/vinc” value worked out at 1.34. In the assay with LoVo, the IC50 worked out at 3.49 ± 0.59 µM and the “SI LoVo” value worked out at 1.71. Moreover, in the assay with LoVo/dx, the IC50 stood at 2.32 ± 0.69 µM, the “IR LoVo/DX” value was 0.66 and the “SI LoVo/DX” value was 2.57. The MIC (in general, the lowest concentration that inhibits growth of the organism) in assay [1] was 100 mg/L (≈ 117 µM). Besides, in assay [2], the MIC was determined as 50 mg/L (≈ 58.3 µM). In addition, the IC50 in assay [3] was in the range of 2.32 to 6.84 µM.

On to `CCC(C(=O)NCc1ccccc1[N+](=O)[O-])C1CCC(C)C(C(C)C(O)C(C)C(=O)C(CC)C2OC3(C=CC(O)C4(CCC(C)(C5CCC(O)(CC)C(C)O5)O4)O3)C(C)CC2C)O1` (stereo not shown) [NO2-o], for which the IC50 in the assay on HL-60 (HL-60, 72 h) came out at 3.47 ± 0.44 µM. Besides, the “SI HL-60” value in the assay on HL-60 amounted to 2.75. In the assay with HL-60/vinc, the IC50 was found to be 6.84 ± 2.04 µM, the “IR HL-60/vinc” value amounted to 1.97 and the “SI HL-60/vinc” value is listed as 1.40. Besides, in the assay with LoVo, the IC50 came to 3.81 ± 0.18 µM and the “SI LoVo” value was 2.51. Besides, in the assay with LoVo/dx, the IC50 came to 2.45 ± 0.26 µM, the “IR LoVo/DX” value is reported as 0.64 and the “SI LoVo/DX” value is on record as 3.90. Moreover, the MIC in assay [1] turned out to be 50 mg/L (≈ 56.5 µM). Moreover, in assay [2], the MIC worked out at 50 mg/L (≈ 56.5 µM). The IC50 in assay [3] is 2.32 to 6.84 µM.
